Assay results from US4898936A, “2-deoxyuridines and riboside precursors” (priority 1985, dated 1990).
Where “and” joins values, the source holds several entries; their conditions need not be identical. Identical values can stand only once.

Columns and labels:
[1] = cited from earlier work; for Toxicity value (B): Administration amount of test compound at which weight increase of test animal is inhibited by 50% compared with that of control group: oral, once a day for 7 consecutive days, mice
[2] = tested on: Sarcoma 180; assay: Antitumor activity in mice against Sarcoma 180 (effective dose); format: in vivo; settings: Sarcoma 180, mice; for ED50: Mus musculus, po, effective dose, administered orally
Method: (§1) The effective dose and the lethal dose has been determined as follows:
^+ Test animals alive at indicated dose. The dosage is administered

[3] = format: in vivo; settings: lethal dose, administered orally; + Test animals alive at indicated dose
Method: as §1
The dosage is administered

[4] = tested on: Sarcoma 180; assay: Comparison of activities of antitumor agents on Sarcoma 180 in mice (50% tumor regression); format: in vivo; settings: Mus musculus
Description: In comparison with the activities of other antitumor agents on Sarcoma 180 in mice, the following results were obtained: […]

[5] = tested on: Sarcoma 180; format: in vivo, mouse (male ICR/JCL-strain); settings: toxicity value (B) / antitumor activity value (A); oral, mice
Method: (c) Calculation of therapeutic index
By the use of the antitumor activity value (hereinafter referred to as A) and the toxicity value (hereinafter referred to as B) of each compound, which were obtained in the above items (a) and (b), respectively, therapeutic index (hereinafer referred to as C) was calculated in accordance with the following equation: […]
Pharmacological tests-(Continued) [formula]

[6] = tested on: Sarcoma 180; settings: cited from earlier work; for Antitumor activity value (A): Administration amount of test compound, at which tumor enhancement is inhibited by 50% compared with that of control group: oral, once a day for 7 consecutive days, tumor weight on tenth day, Sarcoma 180, mice, 14400 min
[7] = tested on: Sarcoma 180; settings: from Table 1; cited from earlier work
[8] = Hygroscopicity; format: physicochemical; settings: beta-anomer

Structure (SMILES): O=c1[nH]c(=O)n([C@H]2C[C@H](OCc3ccccc3)[C@@H](CO)O2)cc1C(F)(F)F [3'-O-Benzyl-2'-Deoxy-5-Trifluoromethyluridine]
- toxicity compared with F3 TdR and FudR (in words) ([1]; from Table 1): equal or superior to F3 TdR and FudR in toxicity
- Toxicity value (B): Administration amount of test compound at which weight increase of test animal is inhibited by 50% compared with that of control group [1]: 32 mg/kg/day
- ED50 [2]: 14 mg/kg
- antitumor activity in mice against Sarcoma 180 (in words) [2]: show antitumor activity in mice against Sarcoma 180
- LD10 [3]: 80 mg/kg
- ED50 [4]: 14 mg/kg
- Therapeutic Index (C) = (B)/(A) [5]: 1.88
- antitumor activity compared with F3 TdR and FudR (in words) ([6]; from Table 1): far superior to them in antitumor activity
- Antitumor activity value (A): Administration amount of test compound, at which tumor enhancement is inhibited by 50% compared with that of control group [6]: 17 mg/kg/day
- usefulness when compared in therapeutic index (in words) [7]: especially useful

Structure (SMILES): O=c1[nH]c(=O)n([C@H]2C[C@H](OCc3ccccc3)[C@@H](CO)O2)cc1F [3'-O-Benzyl-2'-deoxy-5-fluorouridine, 3'-O-Benzyl-2'-Deoxy-5-Fluorouridine]
- Toxicity value (B): Administration amount of test compound at which weight increase of test animal is inhibited by 50% compared with that of control group [1]: 35 mg/kg/day
- antitumor activity in mice against Sarcoma 180 (in words) [2]: show antitumor activity in mice against Sarcoma 180
- Therapeutic Index (C) = (B)/(A) [5]: 2.06
- Antitumor activity value (A): Administration amount of test compound, at which tumor enhancement is inhibited by 50% compared with that of control group [6]: 17 mg/kg/day
- hygroscopicity [8]: not hygroscopic
- usefulness when compared in therapeutic index (in words) [7]: especially useful

Structure (SMILES): Nc1nc(=O)n([C@H]2C[C@H](O)[C@@H](CO)O2)cc1C(F)(F)F [CF3 dC, 5-Trifluoromethyl-2deoxycytidine]
- ED50 [4]: 60 to 80 mg/kg

Structure (SMILES): O=c1[nH]c(=O)n([C@H]2C[C@H](O)[C@@H](CO)O2)cc1C(F)(F)F [F3 TdR, 2'-deoxy-5-trifluoromethyluridine, reference compound]
- Toxicity value (B): Administration amount of test compound at which weight increase of test animal is inhibited by 50% compared with that of control group [1]: 49 mg/kg/day and 40 mg/kg/day
- ED50 [2]: 75 mg/kg
- ED50 [4]: 60 to 80 mg/kg
- Antitumor activity value (A): Administration amount of test compound, at which tumor enhancement is inhibited by 50% compared with that of control group [6]: 68 mg/kg/day and 58 mg/kg/day

Structure (SMILES): O=c1[nH]c(=O)n(C2CCCO2)cc1F (stereo not shown) [Ftorafur]
- ED50 [4]: 120 mg/kg

Structure (SMILES): O=c1[nH]c(=O)n([C@H]2C[C@H](O)[C@@H](CO)O2)cc1F [FudR, 2'-deoxy-5-fluorouridine, reference compound]
- Toxicity value (B): Administration amount of test compound at which weight increase of test animal is inhibited by 50% compared with that of control group [1]: 71 mg/kg/day
- Therapeutic Index (C) = (B)/(A) [5]: 0.76
- Antitumor activity value (A): Administration amount of test compound, at which tumor enhancement is inhibited by 50% compared with that of control group [6]: 93 mg/kg/day
